Laboratory results published in patent US11123388B2, “Composition for preventing and treating inflammatory bowel disease” (GENUONE SCIENCES INC., priority 2015, dated 2021).
Several values for one entry are separate records, joined by “and”; a condition that tells them apart may be missing. Identical values can stand only once.

Columns and labels:
myeloperoxidase (MPO) = assay: Myeloperoxidase (MPO) activity in colon tissue, TNBS animal model; format: in vivo; details: TNBS mice, 200 mg/kg
Description: 6. Effect of Inhibiting Oxidative Stress Through Measurement of Myeloperoxidase (MPO) Activity
200 μL of lysis buffer was added to 100 mg of colon tissue collected at the time of autopsy and homogenized and the supernatant obtained by centrifugation at 10,000 rpm for 20 minutes was used. First, capture antibody of MPO was added into a 96-well ELISA plate and allowed to react overnight. The plate was washed 6 times with 1×PBS (PBS-T) containing 0.05% Tween-20, and blocked with 1× assay diluent solution containing 2% BSA at room temperature for 1 hour. […] With respect to the levels of reactions of the plate, the absorbance was measured at 450 nm using a microplate reader (TECAN, Gr, Austria).
To construct an experimental model of inflammatory bowel disease, 7-week old ICR female mice (25 g to 27 g) were purchased from DBL Co., Ltd. (Eumseong, Korea), and the mice were given ad libitum access to solid feeds and water and allowed to adapt to a controlled environment with constant humidity (50±10%), constant temperature (22±2° C.), and 12-hour light-dark cycle for 1 week. […] Each of their colons was excised from the cecum to the region immediately before the anus, and the length and external appearance of the excised colon were examined to determine the degree of weight loss, constipation, and intestinal edema, and the results were scored according to the criteria.

[1] = tested on: dextran sodium sulfate (DSS)-induced colitis in C57BL/6 female mice; assay: Amelioration of colitis in DSS animal model; format: in vivo; design: DAI (disease activity index): scale not given here; Colon Length: unit not given here
Description: 7. Effect of Ameliorating Colitis in DSS Animal Model To construct an experimental model of inflammatory bowel disease, 6-week old C57BL/6 female mice (17 g to 19 g) were purchased from DBL Co., Ltd. (Eumseong, Korea), and the mice were given ad libitum access to solid feeds and water and allowed to adapt to a controlled environment with constant humidity (50%), constant temperature (22° C.), and 12-hour light-dark cycle for 1 week. […] The control drug (5-ASA) and extracts were dissolved in 0.5% carboxymethyl cellulose (CMC), and then orally administered once daily for 7 days along with 3% dextran sodium sulfate (DSS), and the normal control group and the colitis-induced group were orally administered with 0.5% CMC. The colitis-induced group, the control drug-treated group, and the extract-treated group were given ad libitum access to 3% DSS for 1 week, and the normal control group was given ad libitum access to water. Then, the mice were sacrificed on the 8th day, and each of their colons was excised from the cecum to the region immediately before the anus, and the length and external appearance of the excised colon were examined to determine the degree of weight loss, diarrhea, and […], and the results were scored according to the criteria.

[2] = tested on: TNBS-induced Crohn's disease in ICR female mice; assay: Amelioration of Crohn's disease in TNBS animal model; format: in vivo
Description: 8. Effect of Ameliorating Crohn's Disease in TNBS Animal Model To construct an experimental model of inflammatory bowel disease, 7-week old ICR female mice (25 g to 27 g) were purchased from DBL Co., Ltd. (Eumseong, Korea), and the mice were given ad libitum access to solid feeds and water and allowed to adapt to a controlled environment with constant humidity (50±10%), constant temperature (22±2° C.), and 12-hour light-dark cycle for 1 week. […] The mice were fasted for 24 hours before injection of TNBS. […] The control drug (5-ASA) and extracts were dissolved in 0.5% carboxymethyl cellulose (CMC), and orally administered once daily for 5 days. The normal control group and the colitis-induced group were orally administered with 0.5% CMC. After 5 days of oral administration, mice were fasted until the next day and sacrificed. Each of their colons was excised from the cecum to the region immediately before the anus, and the length and external appearance of the excised colon were examined to determine the degree of weight loss, constipation, and intestinal edema, and the results were scored according to the criteria.

[3] = tested on: TNF-α production in LPS-treated macrophages; assay: Inhibition of LPS-induced TNF-α production in macrophages (ELISA); format: cell-based; details: Macrophage, LPS 1 μg/mL, read-out: Effect of inhibiting TNF-α (%)
Description: 4. Effect of Inhibiting TNF-α Production The macrophages (American Type Culture Collections, Rockville, Mass., USA) cultured in a 24-well plate were pretreated with LPS (1 μg/mL) for 1 hour, treated with a extract (100 μg/mL), 20 mM 5-ASA (100 μg/mL) and 20 μM dexamethasone, and cultured for 24 hours, and the supernatant of cell was used for the experiment. First, capture antibody of TNF-α was added into a 96-well ELISA plate and allowed to react overnight. The plate was washed 6 times with 1×PBS (PBS-T) containing 0.05% Tween-20, and blocked with 1× assay diluent solution containing 2% BSA at room temperature for 1 hour. The plate was washed 6 times with 1×PBS-T and the supernatant or TNF-α standard protein was added thereto and allowed to react at room temperature for 2 hours. The plate was again was washed 6 times with 1×PBS-T, detection antibody was added thereto, and allowed to react at room temperature for 2 hours. The plate was again was washed 6 times with 1×PBS-T, avidin-HRP solution was added thereto, and allowed to react at room temperature for 30 minutes. […] With respect to the levels of reactions of the plate, the absorbance was measured at 450 nm using a microplate reader (TECAN, Gr, Austria).

[4] = tested on: U937 cell adhesion to the HT-29 intestinal epithelial cells; assay: Inhibition of monocyte (U937) adhesion to TNF-α-stimulated intestinal epithelial cells (HT-29); format: cell-based, human; details: 5-ASA 20 mM (positive control), TNF-α 100 ng/mL, 24 h
Description: 3. Effect of Inhibiting Monocyte Adhesion Ability in Intestinal Epithelial Cells Human intestinal epithelial cell line HT-29 cells (American Type Culture Collections, Rockville, Mass., USA) and human monocyte cell line U937 cells (ATCC, Rockville, Mass., USA) were cultured in RPMI 1640 containing fetal bovine serum (FBS) and 1% penicillin/streptomycin, and the cell line was maintained under the environment of 95% air and 5% CO2 at 37° C. […] The HT-29 cells (2×10^6 cells/well), which were cultured in a 48-well plate for 24 hours, were simultaneously treated with a extract (100 μg/mL) while treating with TNF-α (100 ng/mL), and cultured for 24 hours. In particular, 20 mM 5-aminosalicylic acid (5-ASA) was used as the positive control. Then, HT-29 cells were co-cultured along with U937 cells (5×10^5 cells/well), which were labeled with BCECF/AM at 37° C. for 30 minutes. Unattached U937 cells were removed and washed twice with PBS. The HT-29 cells to which U937 cells were attached were dissolved using 0.1% Triton X-100 which was dissolved in 0.1 mol/L Tris. The fluorescence of these lysates was measured using the luminance at 485 nm and 520 nm using a microplate reader (TECAN, Gr, Austria).

[5] = tested on: NO production in HT-29 cells; assay: Inhibition of NO production in HT-29 cells (Griess); format: cell-based, human; details: 48 h
Description: 2. Effect of Inhibition of NO Production Human intestinal epithelial cell line HT-29 cells (American Type Culture Collections, Rockville, Mass., USA) were cultured in Dulbecco's Modified Eagle's Medium (DMEM) along with 10% Fatal bovine serum (FBS), 1% Antibiotic-Antimycotic (GIBCO, Cat No. 15240-062) in 100 mm/60.1 cm^2 culture dish at 37° C., 5% CO2 conditions. […] The supernatant of cell was collected and used as a sample for the test. The test analysis was performed using the Total NO/Nitrite/Nitrate ELISA kit (R&D systems, Cat. #KGE001) according to the manufacturer's manual. Briefly, the test was performed in the following sequence: the cell culture which was grown after treatment with the sample was dispensed into a 96-well plate in an amount of 50 μL/well, treated with Griess Reagent, reacted at room temperature for 10 minutes, and the absorbance was measured at 540 nm.

[6] = tested on: IL-6 production in LPS-treated macrophages; assay: Inhibition of LPS-induced IL-6 production in macrophages (ELISA); format: cell-based; details: LPS 1 μg/mL
Description: 5. Effect of Inhibiting IL-6 Production The macrophages (American Type Culture Collections, Rockville, Mass., USA) cultured in a 24-well plate were pretreated with LPS (1 μg/mL) for 1 hour, treated with a extract (50 μg/mL), 20 mM 5-ASA (50 μg/mL) and 20 μM dexamethasone, and cultured for 24 hours, and the supernatant was used for the experiment. First, capture antibody of IL-6 was added into a 96-well ELISA plate and allowed to react overnight. The plate was washed 6 times with 1×PBS (PBS-T) containing 0.05% Tween-20, and blocked with 1× assay diluent solution containing 2% BSA at room temperature for 1 hour. […] The plate was again was washed 6 times with 1×PBS-T, detection antibody was added thereto, and allowed to react at room temperature for 2 hours. The plate was again was washed 6 times with 1×PBS-T, avidin-HRP solution was added thereto, and allowed to react at room temperature for 30 minutes. The plate was again was washed 6 times with 1×PBS-T, a TMB substrate solution was added thereto and allowed to react at room temperature for final 30 minutes, and a reaction stopping solution (1 M H3PO4) was added thereto to stop the reaction. With respect to the levels of reactions of the plate, the absorbance was measured at 450 nm using a microplate reader (TECAN, Gr, Austria).

[7] = oral once daily 7 days, control drug 5-ASA 200 mg/kg, listed as Control drug-treated Group
[8] = 200 mg/kg oral once daily 5 days, control drug 5-ASA 200 mg/kg, listed as Control drug-treated Group
[9] = 200 mg/kg oral once daily 5 days, control drug 5-ASA 200 mg/kg, listed as control-drug treated group

Nc1ccc(O)c(C(=O)O)c1 [5-ASA, 5-aminosalicylic acid] was tested, and the “decrease of MPO activity compared to the Crohn's disease-induced group” value (myeloperoxidase (MPO)) was 15%, the “effect of improvement of disease activity index compared to the colitis-induced group” value [1] was 45% and the “increase of the colon length compared to the colitis-induced group” value [1] was 3.6%. The “recovery of intestinal mucosa (immunostaining of intestinal mucosal tissues)” value [1] was “partially restored”, the “Colon Length” value [1, 7] was 5.42 and 5.77 and 5.45 and 5.31 ± 0.16 and the “Colon Length (cm)” value [1, 7] was 5.42 cm and 5.31 ± 0.16 cm. The “DAI (disease activity index)” value [1, 7] was 4.50 and 7.48 and 6.88 ± 0.44 and 5.75 and 5.33, the “Weight per Area (colon weight per colon length)” value (“Weight per Area” for short) [1, 7] was 30.66 ± 0.76 and 32.52 and 31.42 and the “reduction of weight of colon per colon length compared to the Crohn's disease-induced group” value ([2]; 200 mg/kg) was “almost no difference”. For the same molecule, the “Colon Length (cm)” value ([2]; 200 mg/kg oral once daily 5 days, control drug 5-ASA 200 mg/kg) was 8.33 ± 0.22 cm, the “Colon Length” value [2, 8] was 8.28 and 8.33 ± 0.22 and the “DAI (disease activity index)” value [2, 8] was 10.56 ± 1.40 and 8.20. The “Weight per Area” value [2, 8] was 67.67 ± 9.30 and 46.55, the “Colon Length” value [2, 9] was 8.27 and the “DAI (disease activity index)” value [2, 9] was 6.30. The “Weight per Area” value [2, 9] was 48.66, the “effect of improvement of disease activity index compared to the Crohn's disease-induced group” value ([2]; 200 mg/kg, listed as Control drug-treated Group, 200 mg/kg) was 7% and 9% and the “difference in colon weight per colon length compared to the Crohn's disease-induced group” value ([2]; 5-ASA 200 mg/kg) was “about 6.5 mg/cm”. For the same molecule, the inhibition at 20000 µM ([3]; 5-ASA 20 mM) was 11.1%, the “Effect of inhibiting adhesion (%)” value [4] was 24.48% and the inhibition at 20000 µM ([4]; Homo sapiens, read-out: Effect of inhibiting adhesion (%)) was 18.9%. For the same molecule, the “inhibitory effect against NO production” value [5] was 37%, the “Effect of inhibiting IL-6 (%)” value ([6]; 5-ASA 20 mM) was 67.68% and 50.98% and the “Effect of inhibiting IL-6 (%)” value ([6]; 5-ASA 20 mM, listed as 5ASA) was 49.89% and 49.35%. The inhibition at 20000 µM ([6]; Macrophage, 5-ASA 20 mM, read-out: Effect of inhibiting IL-6 (%)) was 52.8%.

Work on C[C@@H]1C[C@H]2[C@@H]3CCC4=CC(=O)C=C[C@]4(C)[C@@]3(F)[C@@H](O)C[C@]2(C)[C@@]1(O)C(=O)CO [Dexamethasone, dexamethasone] yielded an inhibition at 20 µM ([3]; dexamethasone 20 μM) of 38.5% and an inhibition at 20 µM ([6]; Macrophage, dexamethasone 20 μM, read-out: Effect of inhibiting IL-6 (%)) of 49.9%.
